The MIC is the least concentration at which growth counts as inhibited. Low values mean inhibition by little substance, high ones a need for much substance.

Structures are written as SMILES. In brackets after ≈: the same amount, converted by molar mass.

For one data set, the system named is Bacillus cereus CH-85. It counts as cell-based. The following applies: CH-85. As for the experimental part:
(§1) Each experiment was performed in triplicate.

Another data set relates to E. faecium LMG11423. It is filed as cell-based, Enterococcus faecium. The settings on record: LMG11423. Here is the method:
as §1

In data set [1] the test system is E. faecium LMG16003 (VRE). It counts as cell-based, Enterococcus faecium. The following applies: LMG16003. As for the experimental part: as §1
A further data set relates to L. lactis MG1363. Kind of data set: Time-kill assay. It is filed as cell-based, Lactococcus lactis. The settings on record: 5-fold MIC. Here is the method:
The bactericidal activity of nisin, nisin(1–22), and rombocin was evaluated according to a previously described procedure based on Guo et al.[38] Briefly, an overnight culture of L. lactis MG1363 was diluted 50-fold in GM17 medium and incubated at 30 °C. The bacteria were grown until reaching an optical density at 600 nm (OD600) of 0.5, at which point the cell concentration was adjusted to 5 × 10^5 CFU/mL. Subsequently, the bacteria were challenged with a 5-fold MIC of each peptide. A control sample of an untreated cell suspension was included. At specific time points, 50 μL aliquots were collected, and undiluted and 10-fold serially diluted suspensions were plated on GM17 agar. The plates were incubated overnight at 30 °C, and the resulting colonies were counted and calculated as colony-forming units per milliliter (CFU/mL). Both assays were performed in triplicate to ensure reproducibility.

Data set [2] is described as follows: pH stability by residual antimicrobial activity. It counts as physicochemical. The following applies: residual antimicrobial activity vs L. lactis 1363, agar well, triplicate. As for the experimental part:
(§2) To investigate the impact of proteolytic enzymes, pH, and temperature on the antimicrobial activity, a representative strain of L. lactis 1363 was utilized. For the proteolytic enzyme assay, 40 μL of peptide (1 mg/mL) was incubated with or without final concentrations of 1 mg/mL proteolytic enzymes at room temperature for 3 h, followed by an activity test in the agar well. To determine pH stability, the pH was adjusted to 2, 4, 7, and 10 using 1 M HCl or NaOH. The temperature stability was assessed by incubating the peptide at 22, 50, 70, and 90 °C for a specified duration. All experiments were performed in triplicate.
(§3) Overnight cultures of the test strains were inoculated at a final concentration of 0.1% (v/v) into melted LB agar at 45 °C and then poured onto plates. After solidification, 8 mm wells were created and filled with 40 μL of the lantibiotic solution (1 mg/mL). The lantibiotics were activated by adding 5 μL of NisP directly to the well. The plates were then incubated overnight at 30 °C, and the zone of inhibition was measured. Zone diameters were calculated by subtracting the area of the well (πr^2) from the area of the zone (πr^2) and reported in millimeters. To determine the peptide concentration, purified and lyophilized peptides were resuspended in 0.05% aqueous acetic acid solution and quantified by HPLC following the protocol described by Schmitt et al.[44] All experiments were performed in triplicate.

The nature of data set [3]: Thermal stability by residual antimicrobial activity. It is filed as physicochemical. The following applies: residual antimicrobial activity vs L. lactis 1363, agar well, triplicate. As for the experimental part: as §2
as §3, with “All experiments were performed in triplicate.” left out

With `C=C1NC(=O)[C@H]([C@@H](C)CC)NC(=O)C(NC(=O)C(=CC)NC(=O)[C@@H](N)[C@@H](C)CC)CSC[C@@H](C(=O)NC2C(=O)N[C@@H](C)C(=O)NCC(=O)N[C@H](C(=O)N[C@H](C(=O)NC3C(=O)NCC(=O)N[C@@H](C(C)C)C(=O)N[C@@H]([C@@H](C)CC)C(=O)N[C@@H](CCSC)C(=O)NC(=CC)C(=O)N[C@H](C(=O)N[C@@H](CCSC)C(=O)NC4CSC[C@@H](C(=O)N[C@@H](CCCCN)C(=O)O)NC(=O)CNC(=O)[C@H](CC(N)=O)NC4=O)CSC3C)[C@@H](C)CC)CSC2C)NC(=O)[C@H](CC(C)C)NC1=O` (stereo partly shown) [rombocin A], the MIC was determined as 25 µg/mL (≈ 10.5 µM) in the data set on Bacillus cereus CH-85, 100 µg/mL (≈ 42 µM) in the data set with E. faecium LMG11423 and 100 µg/mL (≈ 42 µM) in data set [1]. Also, the “time to complete killing” value in the data set with L. lactis MG1363 (L. lactis MG1363, 5 × 10^5 CFU/mL, CFU counting, triplicate) came to 18 h. Moreover, the “bacteriostatic or bactericidal activity” value with L. lactis MG1363 (L. lactis, time-dependent killing) is “strong bactericidal activity”. Also, the retained activity in data set [2] (neutral pH, after 8 h of incubation) was 70%; in data set [2] (pH 2 and 4, after 8 h of incubation) it was “more than 80%”. For the same molecule, the reduction in activity entry in data set [2] (pH 2, 4, 7, and 10 (adjusted with 1 M HCl or NaOH), up to 5.5 h) is on record as “less than 20%”; in data set [3] (temperatures between 22 and 50 °C, up to 10 h), “less than 30%”. Besides, the “incubation time to complete loss of activity” value in data set [3] (90 °C) worked out at 7 h.

The record behind these values is article PMC10804407, “Rombocin, a Short Stable Natural Nisin Variant, Displays Selective Antimicrobial Activity against Listeria monocytogenes and Employs a Dual Mode of Action to Kill Target Bacterial Strains” (ACS Synthetic Biology, 2024).
